This note sets out measurements from patent US20210198259A1, “HETEROCYCLIC DERIVATIVES AND USE THEREOF” (C&C RESEARCH LABORATORIES, priority 2018, published 2021).

The target of data set [1] is T1, human histamine 4 receptor (hH4R) (Homo sapiens, UniProt Q9H3N8).
T1 construct: purchased Multispan
Briefly: Binding affinity of human histamine 4 receptor (hH4R), [3H] histamine displacement. To be noted: [3H] labeled histamine, hH4R-overexpressed cell membrane. The procedure:
The compounds prepared in the above Examples, the compound of Example 55 of International Publication No. WO 2010/030785 and the compound of Example 4 of International Publication No. WO 2013/048214 were diluted by 1,000 fold (v/w) with DMSO, and then 1 mL of the diluted compound solution was mixed with 99 mL of the analysis buffer solution (50 mM tris-HCl pH 7.4, 5 mM EDTA) to obtain concentration of 1 μM. […] of the prepared compound solution was transferred to each well of a 96-well plate, and then 20 mL of 100 μM histamine diluted with analysis buffer solution and 1% DMSO were transferred to each well to calculate non-specific binding and total binding degree. 15 μg of human histamine 4 receptor-overexpressed cell membrane (Multispan) was diluted into […] of analysis buffer solution and that was transferred to each well. [^3H] labeled histamine (PerkinElmer) was diluted into 10 nM concentration, 20 mL was allocated in each well, and then it was kept in a 27° C. incubator for 30 minutes. After the reaction, 100 mL of the mixture was transferred to a glass fiber plate in which 0.5% polyethylene amine was pre-soaked, and then non-binding [^3H] labeled histamine was removed in vacuum. After 6 times washing with 200 mL of washing buffer solution (50 mM tris-HCl, pH 7.4), the plate was dried in a 37° C. oven for 18 hours. […] of betaScint cocktail solution was added to each well, and after 10 minutes CPM (count per minute) value of [^3H] labeled histamine was measured by the use of Micro beta2™. The binding affinity (% inhibition) of the human histamine 4 receptor for the compounds of the present invention was analyzed by an Excel program, and the results of analysis are represented in Table 1.

Data set [2] is described as follows: Test for pharmacokinetics in ICR mice (oral). Format: in vivo. Particulars: 50 mg/kg, ICR mouse, 5 mg/mL solution at 10 mL/kg, plasma. The procedure: As the administration solution for mice of the compounds prepared in the above
Examples, the compound of Example 55 of International Publication No. WO 2010/030785 and the compound of Example 4 of International Publication No. WO 2013/048214, 20% hydroxypropyl-β-cyclodextrin solution (99.75%) and 2N HCl (0.25%) were added sequentially to make 5 mg/mL. Provided that in the case of the compound of Example 10, 99.5% of 20% hydroxypropyl-β-cyclodextrin solution and 0.5% of 2N HCl […] were added.
The weight of each ICR mouse was properly 20-30 g. Dosage of the compound of the present invention was 10 mL/kg, and administered orally using Zonde. Blood collection was performed at 0.5, 1, 2, 4, 7 and 24 hours by orbital venous blood collection using a capillary tube coated with an anticoagulant, and then plasma was isolated using a centrifuge and kept in a freezer.
Plasma collected from animals and standard concentration material were pre-treated using solid-phase extraction, and concentration of the compound of the invention was determined using a liquid chromatography mass spectrometer (Agilent HPLC, API-4000 Qtrap). According to the resulting concentration value, the pharmacokinetics parameter was found using WinNonlin (Version 7.0) and half-life (t1/2), maximum blood concentration (Cmax) and area under the curve (AUCall) are represented in Table 2.

The test system of data set [3] is ICR mice. Briefly: Histamine-induced itching model in ICR mice. To be noted: 50 mg/kg oral, scratches counted for 20 minutes. In kind it is in vivo, mouse. The procedure: Female, ICR mice (8 weeks old) were purchased from OrientBio Co., Ltd. The animals were housed under conditions of controlled temperature (23±3° C.), humidity (50±5%) and lighting with food and water available ad libitum. Water and food were stopped 1 hour before the experiment.
For easy intradermal injection of pruritogen (histamine, dissolved in saline injection solution to make the concentration of 300 nmol per 40 μL) the hair was clipped using clippers (8000AD, THRIVE) over the rostral part of the back 24 hours before the experiment under inhalation anesthesia with isoflurane. Mice (n=10 per group) were divided into 5 groups (normal group, control group and 3 experimental groups). […] At the end of the filming, the number of scratches of the test animals was counted during 20 minutes after histamine administration using the recorded video. The number of scratches was counted a series of actions from scratching with the rear foot of the animal to the time of taking the rear foot to the mouth as one time (J. Allergy Clin. Immunol. 2007, 19(1), 176-183). All data were analyzed by using Excel and Prism, and the number of scratching of each group is expressed as the mean±S.E.M. The inhibitory effect of compounds is shown as a percentage of the maximal response to histamine (100% control group). Statistical analysis was analyzed using one-way ANOVA with Dunnett test. […]

T1 sequence (Q9H3N8 whole entry): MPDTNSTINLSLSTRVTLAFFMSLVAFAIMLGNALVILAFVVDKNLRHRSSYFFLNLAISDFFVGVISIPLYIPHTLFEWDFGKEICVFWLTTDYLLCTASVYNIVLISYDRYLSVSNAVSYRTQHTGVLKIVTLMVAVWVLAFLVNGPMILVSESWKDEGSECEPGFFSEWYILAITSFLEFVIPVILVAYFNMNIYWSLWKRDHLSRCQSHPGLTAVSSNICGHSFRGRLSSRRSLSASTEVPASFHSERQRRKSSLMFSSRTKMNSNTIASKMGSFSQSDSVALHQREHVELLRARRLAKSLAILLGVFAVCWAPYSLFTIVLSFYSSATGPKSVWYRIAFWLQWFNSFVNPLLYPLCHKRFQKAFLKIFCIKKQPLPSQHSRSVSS

A word on the inhibition: it is the relative decrease from the control value, in per cent. In general, AUC refers to the area under the concentration-time curve, a measure of exposure. A low value points to low exposure. Broadly, the Cmax is the peak of the concentration-time curve. By half-life is commonly meant the time needed for the level to fall by half in the phase considered. Low values mean rapid decline, high ones slow decline. With `CN1CCN(C2=Nc3ccc(Br)cc3N3CC(=O)N=C23)CC1` [Example 12, 8-bromo-4-(4-methylpiperazin-1-yl)imidazo[1,2-a]quinoxalin-2(1H)-one], the inhibition at 1 µM in data set [1] was determined as 101%. Further, in data set [2], the AUC turned out to be 1390 ng·h/mL, the Cmax turned out to be 570 ng/mL and the half-life is 1.73 h.
In the case of `CNC1CN(C2=Nc3ccc(Br)cc3N3CC(=O)N=C23)C1` [Example 13, 8-bromo-4-(3-(methylamino)azetidin-1-yl)imidazo[1,2-a]quinoxalin-2(1H)-one], the “Human histamine 4 receptor (hH4R) binding affinity (% inhibition at 1 μM)” value in data set [1] is 95.8%. In data set [2], this molecule registered an AUC of 30500 ng·h/mL and a Cmax of 2500 ng/mL. Moreover, the “Inhibitory rate (%) After 30 minutes” value in data set [3] (histamine given 30 minutes after dosing) came to 131%. Moreover, in data set [3] (histamine given 7 hours after dosing), the “Inhibitory rate (%) After 7 hours” value was determined as 99.0%.
